We go through two compounds from US20080280860A1, “Use of Vitamin D Compounds to Treat Endometriosis” (BioXell S.p.A., priority 2005, published 2008).

The nature of one data set: Maximum tolerated dose. It counts as in vivo, Balb/c mice. As to conditions: Balb/c, mouse, in vivo; mice, ip; above it the compound becomes hypercalcemic.
Another data set relates to endometriotic lesions. In words: In vivo model of endometriosis (lesion weight). The note with it: Example 2; each compound at its maximum tolerated level, ip once a day, 5 days a week for two weeks. The arrangement: species or system Balb/c mice. The procedure: Balb/c donor mice were injected with estrogen (Estradiol AMSA; 3 ug/mouse) and one week later were sacrificed and the uterus was removed, the two horns isolated and reduced to small fragments. The fragments derived from the isolated uterine horns were resuspended in saline with ampicillin (1 mg/ml) and then injected into the peritoneum of two recipient Balb/c mice, previously anesthesized, through a 0.5 cm incision in the abdominal wall. […] Antibiotic (ampicillin 1 mg/ml) was administered on the day of the surgery and on the day after. […] […] Lesions can be identified as translucid isolated or grouped cysts mainly found on the abdominal wall, on the pancreas, and around the uterus. In some cases the lesions are necrotic. The lesions were carefully removed and put on a glass slide to dry for 48 hours, and then were weighed. In other experiments lesions are transferred to a lysis solution and mRNA isolated for gene expression analysis. For immunohistochemical analysis, lesions were frozen immediately after isolation.
Balb/c donor mice were injected with estrogen (Estradiol AMSA; 3 ug/mouse) and one week later were sacrificed and the uterus was removed, the two horns isolated and reduced to small fragments. The fragments derived from the isolated uterine horns were resuspended in saline with ampicillin (1 mg/ml) and then injected into the peritoneum of two recipient Balb/c mice, previously anesthetised, through a 0.5 cm incision in the abdominal wall. Antibiotic (ampicillin 1 mg/ml) was administered on the day of the surgery and on the day after. […] Dosage levels of the test compounds were at the maximum tolerated levels for the compound in question, i.e. 1-alpha-fluoro-25-hydroxy-16,23E-diene-26,27-bishomo-20-epi-cholecalciferol (Compound A) 100 ug/kg, calcitriol (Compound B) 0.3 ug/kg and 1,25-dihydroxy-21-(3-hydroxy-3-methylbutyl)-19-nor-cholecalciferol (Compound C) 3 ug/kg.
[…] Lesions can be identified as translucid isolated or grouped cysts mainly found on the abdominal wall, on the pancreas, and around the uterus. In some cases the lesions are necrotic. The lesions were carefully removed and put on a glass slide to dry for 48 hours, and then were weighed.
Balb/c donor mice were injected with estrogen (Estradiol AMSA; 3 ug/mouse) and one week later were sacrificed and the uterus was removed, the two horns isolated and reduced to small fragments. The fragments derived from the isolated uterine horns were resuspended in saline with ampicillin (1 mg/ml) and then injected into the peritoneum of recipient Balb/c mice, previously anesthetised, through a 0.5 cm incision in the abdominal wall. Antibiotic (ampicillin 1 mg/ml) was administered on the day of the surgery and on the day after. […]
[…] Lesions can be identified as translucid isolated or grouped cysts mainly found on the abdominal wall, on the pancreas, and around the uterus. In some cases the lesions are necrotic. The lesions were carefully removed and put on a glass slide to dry for 48 hours, and then were weighed. At least 10 test animals were used in each group.
Further experiments were performed using Compound A at 100 ug/kg but varying the time at which administration of the vitamin D compound was initiated and the time point at which administration was ceased. Specifically: (i) administration for 1 week prior to injection of the uterine fragments (ii) administration for 2 weeks subsequent to injection of the uterine fragments (iii) administration for 1 week prior and 2 weeks subsequent to injection of the uterine fragments (iv) administration for 2 weeks, initiated two days subsequent to injection of the uterine fragments (v) administration for 2 weeks, initiated two weeks subsequent to injection of the uterine fragments. In these experiments, subjects were sacrificed at the later of two weeks post injection or the end of the treatment period as appropriate.

SMILES strings stand for the structures.

One may read the MTD as the highest dose tested that stayed within the study's limit of toxicity. Consider `C=C1/C(=C\C=C2/CCC[C@]3(C)[C@@H]([C@H](C)CCCC(C)(C)O)CC[C@@H]23)C[C@@H](O)C[C@@H]1O` [Compound B, calcitriol, reference compound], for which the MTD in “Maximum tolerated dose” was 0.3 µg/kg. In the data set with endometriotic lesions, the “lesion weight, treated versus control (vehicle only), statistical analysis” value is “significant reduction in lesion weight”.

For the compound `CC(C)(O)CCCC(CCCC(C)(C)O)[C@H]1CC[C@H]2/C(=C/C=C3C[C@@H](O)C[C@H](O)C3)CCC[C@]12C` [Compound C, 1,25-dihydroxy-21-(3-hydroxy-3-methylbutyl)-19-nor-cholecalciferol], the maximum tolerated dose (MTD) in the data set “Maximum tolerated dose” is 3 µg/kg. Further, in the data set with endometriotic lesions, the “lesion weight, treated versus control (vehicle only), statistical analysis” value was “no significant reduction in lesion weight”.
